Data taken from PMC10791089, “Identification and evaluation of antiviral activity of novel compounds targeting SARS-CoV-2 virus by enzymatic and antiviral assays, and computational analysis” (Journal of Enzyme Inhibition and Medicinal Chemistry, 2024).

system: SARS-CoV-2 strain Slovakia/SK-BMC5/2020; assay: microbe, parasite or virus in culture; assay type: cell-based; details: Severe acute respiratory syndrome coronavirus 2, Vero C1008; VERO-E6 cells, MOI 1.0, 72 h, 0.1-30 µM; n/o = no antiviral effect observed within the concentration range; read-out: EC50 Plaque reduction assay

| Structure (SMILES) | EC50 [µM] |
| --- | --- |
| CCC(CC)COC(=O)[C@H](C)N[P@](=O)(OC[C@H]1O[C@@](C#N)(c2ccc3c(N)ncnn23)[C@H](O)[C@@H]1O)Oc1ccccc1 [Compound C8, Remdesivir, reference compound] | 1.8 |
| CC(C)C[C@@H](NC(=O)OCc1ccccc1)C(=O)N[C@@H](CC1CCNC1=O)C(O)S(=O)(=O)O (some centres unmarked) [Compound C10, GC376, reference compound] | 1 |
| N[C@@H](Cc1ccccc1)C(=O)N1C/C(=C\c2ccc(Cl)c(Cl)c2)C(=O)/C(=C/c2ccc(Cl)c(Cl)c2)C1 [RA-190, reference compound] | 3 |

same assay, conditions: VERO-E6 cells, MOI 1.0, 72 h, 0.1-30 µM; n/o = no antiviral effect observed within the concentration range

| Structure (SMILES) | EC50 Plaque reduction assay |
| --- | --- |
| COc1cc(/C=C2\CC(OC(=O)NCCCN)C/C(=C\c3ccc(O)c(OC)c3)C2=O)ccc1O (centres unmarked) [Compound T123] | no antiviral effect was observed and did not show any inhibitory efficiency and n/o |
| O=[N+]([O-])c1ccc(/C=C2\CC(O)C/C(=C\c3ccc([N+](=O)[O-])cc3)C2O)cc1 (centres unmarked) [Compound T125] | no antiviral effect was observed and did not show any inhibitory efficiency and no antiviral activity and n/o |

same assay, conditions: VERO-E6 cells, MOI 1.0, 72 h, 0.1-30 µM; n/o = no antiviral effect observed within the concentration range; read-out: EC50 Plaque reduction assay

| Structure (SMILES) | EC50 [µM] |
| --- | --- |
| Cc1ccc(N)cc1C(=O)N[C@H](C)c1cccc2ccccc12 [Compound C9, GRL0617, reference compound] | 2.5 |

target: T1, SARS-CoV-2 PL^pro (Severe acute respiratory syndrome coronavirus 2, UniProt P0DTD1); assay: biochemical; assay type: biochemical; details: not given

| Structure (SMILES) | IC50 [µM] |
| --- | --- |
| O=C1/C(=C/c2ccc([N+](=O)[O-])cc2)CC(O)C/C1=C\c1ccc([N+](=O)[O-])cc1 (centres unmarked) [Compound T97] | > 100 |

same assay, conditions: protease activity; 1 h at 37 °C; 1 mM DTT; read-out: IC50 Enzyme assay PA PL^pro

| Structure (SMILES) | IC50 [µM] |
| --- | --- |
| COc1cc(/C=C2\CC(OC(=O)NCCCN)C/C(=C\c3ccc(O)c(OC)c3)C2=O)ccc1O (centres unmarked) [Compound T123] | 60 |
| N[C@@H](Cc1ccccc1)C(=O)N1C/C(=C\c2ccc(Cl)c(Cl)c2)C(=O)/C(=C/c2ccc(Cl)c(Cl)c2)C1 [RA-190, reference compound] | > 100 |

same assay, conditions: read-out: IC50 Enzyme assay PA PL^pro; protease activity; 1 h at 37 °C; 1 mM DTT

| Structure (SMILES) | IC50 [µM] |
| --- | --- |
| O=[N+]([O-])c1ccc(/C=C2\CC(O)C/C(=C\c3ccc([N+](=O)[O-])cc3)C2O)cc1 (centres unmarked) [Compound T125] | < 100 |

system: VERO-E6, Caco-2, PK-15, and A549 cells; assay: Cell viability MTT assay, averaged over screened cell lines; details: concentration causing >40% reduction in number of viable cells, 72 h, 0.5-30 µM, n/o = no cytotoxic effect observed within the concentration range

| Structure (SMILES) | CTE Cell viability MTT assay |
| --- | --- |
| CCC(CC)COC(=O)[C@H](C)N[P@](=O)(OC[C@H]1O[C@@](C#N)(c2ccc3c(N)ncnn23)[C@H](O)[C@@H]1O)Oc1ccccc1 [Compound C8, Remdesivir, reference compound] | n/o |
| O=C1/C(=C/c2ccc([N+](=O)[O-])cc2)CC(O)C/C1=C\c1ccc([N+](=O)[O-])cc1 (centres unmarked) [Compound T97] | >5.0 µM |
| O=[N+]([O-])c1ccc(/C=C2\CC(O)C/C(=C\c3ccc([N+](=O)[O-])cc3)C2O)cc1 (centres unmarked) [Compound T125] | no observed cytotoxic effect and n/o |

system: PL^pro; assay: not given; details: read-out: IC50 deubiquitinase activity; drug repurposing study; cited from earlier work

| Structure (SMILES) | IC50 [µM] |
| --- | --- |
| Cc1ccc(/C=C2\CNC/C(=C\c3ccc(C)cc3)C2=O)cc1 [NSC63283] | > 100 |

target: T1, SARS-CoV-2 PL^pro; assay: biochemical; details: not given; remark: another data set of the same source

| Structure (SMILES) | IC50 [µM] |
| --- | --- |
| O=C1/C(=C/c2ccc([N+](=O)[O-])cc2)CC(O)C/C1=C\c1ccc([N+](=O)[O-])cc1 (centres unmarked) [Compound T97] | > 100 |

same assay, conditions: deubiquitinase activity; 1 h at 37 °C; 1 mM DTT; read-out: IC50 Enzyme assay DUA PL^pro

| Structure (SMILES) | IC50 [µM] |
| --- | --- |
| COc1cc(/C=C2\CC(OC(=O)NCCCN)C/C(=C\c3ccc(O)c(OC)c3)C2=O)ccc1O (centres unmarked) [Compound T123] | 75 |
| N[C@@H](Cc1ccccc1)C(=O)N1C/C(=C\c2ccc(Cl)c(Cl)c2)C(=O)/C(=C/c2ccc(Cl)c(Cl)c2)C1 [RA-190, reference compound] | > 100 |

system: VERO-E6 cells; assay: Cell viability MTT assay in VERO-E6 cells; assay type: cell-based, African Green Monkey; details: VERO-E6 cell line, 72 h

| Structure (SMILES) | CTE in VERO-E6 cells |
| --- | --- |
| O=C1/C(=C/c2ccc([N+](=O)[O-])cc2)CC(O)C/C1=C\c1ccc([N+](=O)[O-])cc1 (centres unmarked) [Compound T97] | approximately 5 µM |

target: SARS-CoV-2 M^pro (Severe acute respiratory syndrome coronavirus 2, UniProt P0DTD1); assay: biochemical; details: not given

| Structure (SMILES) | IC50 [µM] |
| --- | --- |
| O=C1/C(=C/c2ccc([N+](=O)[O-])cc2)CC(O)C/C1=C\c1ccc([N+](=O)[O-])cc1 (centres unmarked) [Compound T97] | > 100 |
| O=[N+]([O-])c1ccc(/C=C2\CC(O)C/C(=C\c3ccc([N+](=O)[O-])cc3)C2O)cc1 (centres unmarked) [Compound T125] | > 100 |

same assay, conditions: protease activity; 4 h at room temperature; 1 mM DTT; read-out: IC50 Enzyme assay PA M^pro

| Structure (SMILES) | IC50 [µM] |
| --- | --- |
| COc1cc(/C=C2\CC(OC(=O)NCCCN)C/C(=C\c3ccc(O)c(OC)c3)C2=O)ccc1O (centres unmarked) [Compound T123] | > 100 |
| N[C@@H](Cc1ccccc1)C(=O)N1C/C(=C\c2ccc(Cl)c(Cl)c2)C(=O)/C(=C/c2ccc(Cl)c(Cl)c2)C1 [RA-190, reference compound] | > 100 |

system: severe COVID-19 and hospitalisation; assay: not given; set-up: method as in PMID 34726479; details: treatment started during the first days after appearance of symptoms; cited from earlier work

| Structure (SMILES) | protection against severe COVID-19 and hospitalisation |
| --- | --- |
| CC(C)(C)[C@H](NC(=O)C(F)(F)F)C(=O)N1C[C@H]2[C@@H]([C@H]1C(=O)N[C@H](C#N)C[C@@H]1CCNC1=O)C2(C)C [nirmatrelvir] | approximately 90% |
